Laboratory results from patent US20060069132A1, “Azolecarboxamide herbicides” (priority 2004, published 2006).

Experiments:
morningglory = test: Test B pre-/postemergence herbicide test; type: in vivo, Ipomoea coccinea
Method in brief: (§1)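 Seeds were planted and treated preemergence with compounds formulated in a non-phytotoxic solvent mixture containing surfactant, while plants at the 1- to 4-leaf stage (2 to 18 cm) received postemergence sprays. Flooded paddy plants were grown to the 2-leaf stage. After 13 to 15 days in a greenhouse, injury was visually rated 0–100 against untreated controls.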

ducksalad = test: Test B flooded paddy test; type: in vivo, Heteranthera limosa; conditions: scale 0 to 100 (0 no effect, 100 complete control)
Method in brief: (§2)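 Postemergence plants were sprayed with formulated test chemicals at 2 to 18 cm height (1- to 4-leaf stage); paddy species were grown to the 2-leaf stage. After 13 to 15 days in a greenhouse, injury was rated visually against untreated controls on a 0–100 scale (0 = no effect, 100 = complete control).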

wheat = test: Test B postemergence herbicide test; type: in vivo, Triticum aestivum; parameters: key to Wheat plant response rating: 0 = no effect, 100 = complete control
Method in brief: (§3)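 Scale 0–100: zero equals no visible effect, 100 complete control, judged by eye relative to controls. Timing: 13 to 15 days in greenhouse post-treatment. Growth stage at spraying: two leaves (paddy) or one to four leaves, 2–18 cm (postemergence).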

barnyardgrass [1] = test: Test B flooded paddy test; type: in vivo, Echinochloa crus-galli; conditions: scale 0 to 100 (0 no effect, 100 complete control)
Method in brief: as §2

barnyardgrass [2] = test: Test B pre-/postemergence herbicide test; type: in vivo, Echinochloa crus-galli
Method in brief: as §1

giant foxtail = test: Test B pre-/postemergence herbicide test; type: in vivo, Setaria faberi
Method in brief: (§4)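 Plants compared with untreated controls 13–15 days post-treatment and given a visual 0–100 injury score. Applications: preemergence to seeds; postemergence at 1- to 4-leaf (2–18 cm); paddy species flooded, 2-leaf stage. Vehicle non-phytotoxic, surfactant included.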

wild oat = test: Test B postemergence herbicide test; type: in vivo, Avena fatua
Method in brief: as §3

large crabgrass = test: Test B pre-/postemergence herbicide test; type: in vivo, Digitaria sanguinalis
Method in brief: as §4

lambsquarters = test: Test B pre-/postemergence herbicide test; type: in vivo, Chenopodium album
Method in brief: as §4

Surinam grass = test: Test B pre-/postemergence herbicide test; type: in vivo, Urochloa decumbens
Method in brief: as §4

velvetleaf = test: Test B pre-/postemergence herbicide test; type: in vivo, Abutilon theophrasti
Method in brief: as §4

blackgrass = test: Test B postemergence herbicide test; type: in vivo, Alopecurus myosuroides
Method in brief: as §2

corn = test: Test B pre-/postemergence herbicide test; type: in vivo, Zea mays
Method in brief: as §4

rice = test: Test B flooded paddy test; type: in vivo, Oryza sativa; conditions: scale 0 to 100 (0 no effect, 100 complete control)
Method in brief: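 Formulated test chemicals went onto postemergence plants measuring 2 to 18 cm, at one to four leaves. For the paddy assay, species had reached two leaves. Scoring took place 13–15 days later by eye, relative to untreated plants, using 0 for no effect up to 100 for full control.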

pigweed = test: Test B pre-/postemergence herbicide test; type: in vivo, Amaranthus retroflexus
Method in brief: as §4

cocklebur = test: Test B pre-/postemergence herbicide test; type: in vivo, Xanthium strumarium
Method in brief: as §1

[3] = tested on: small flower umbrella sedge; test: Test B flooded paddy test; type: in vivo, Cyperus difformis; conditions: scale 0 to 100 (0 no effect, 100 complete control)
Method in brief: as §2

[4] = 125 g ai/ha, 0 is no effect, 100 is complete control, preemergence
[5] = Postemergence, 500 g ai/ha, scale 0 (no effect) to 100 (complete control)
[6] = postemergence, 125 g ai/ha, scale 0 to 100
[7] = 500 g ai/ha, scale 0 to 100, 0 no effect, 100 complete control, preemergence
[8] = Postemergence, 125 g ai/ha, scale 0 (no effect) to 100 (complete control)
[9] = Postemergence, 250 g ai/ha, scale 0 (no effect) to 100 (complete control)
[10] = postemergence, 62 g ai/ha, scale 0 to 100
[11] = 1000 g ai/ha, visual rating, 13 to 15 days

CC(C)(C)n1nc(Br)c(C(=O)Nc2cccc(C(=O)N3CC=CC3)c2)n1 [Compound 433]
Plant response rating (0 to 100 scale), Morningglory (morningglory; [4]): 40 | Morningglory plant response rating (morningglory; [5]): 80 | Morningglory plant response rating (morningglory; [6]): 50 | Ducksalad plant response rating (ducksalad; 125 g ai/ha): 60 | Wheat plant response rating (wheat; [7]): 50 | Wheat plant response rating (wheat; [5]): 50 | Wheat plant response rating (wheat; [6]): 40 | Barnyardgrass plant response rating (barnyardgrass [1]; 125 g ai/ha): 30 | Plant response rating (0 to 100 scale), Barnyardgrass (barnyardgrass [2]; [4]): 50 | Barnyardgrass plant response rating (barnyardgrass [2]; [8]): 10 | Barnyardgrass plant response rating (barnyardgrass [2]; [5]): 20 | Plant response rating (0 to 100 scale), Foxtail, Giant (giant foxtail; [4]): 60 | Foxtail, Giant plant response rating (giant foxtail; [5]): 40 | Foxtail, Giant plant response rating (giant foxtail; [6]): 30 | Oat, Wild plant response rating (wild oat; [5]): 60 | Oat, Wild plant response rating (wild oat; [6]): 50 | Plant response rating (0 to 100 scale), Crabgrass, Large (large crabgrass; [4]): 90 | Crabgrass, Large plant response rating (large crabgrass; [5]): 30 | Crabgrass, Large plant response rating (large crabgrass; [6]): 20 | Plant response rating (0 to 100 scale), Lambsquarters (lambsquarters; [4]): 70 | Lambsquarters plant response rating (lambsquarters; [5]): 80 | Lambsquarters plant response rating (lambsquarters; [6]): 40 | Plant response rating (0 to 100 scale), Surinam Grass (Surinam grass; [4]): 20 | Surinam Grass plant response rating (Surinam grass; [5]): 30 | Surinam Grass plant response rating (Surinam grass; [6]): 20 | Plant response rating (0 to 100 scale), Velvetleaf (velvetleaf; [4]): 40 | Velvetleaf plant response rating (velvetleaf; [5]): 50 | Velvetleaf plant response rating (velvetleaf; [6]): 10 | Blackgrass plant response rating (blackgrass; [5]): 40 | Blackgrass plant response rating (blackgrass; [6]): 30 | Plant response rating (0 to 100 scale), Corn (corn; [4]): 10 | Corn plant response rating (corn; [5]): 30 | Corn plant response rating (corn; [6]): 20 | Rice plant response rating (rice; 125 g ai/ha): 0 | Plant response rating (0 to 100 scale), Pigweed (pigweed; [4]): 100 | Pigweed plant response rating (pigweed; [5]): 70 | Pigweed plant response rating (pigweed; [6]): 50 | Plant response rating (0 to 100 scale), Cocklebur (cocklebur; [4]): 10 | Cocklebur plant response rating (cocklebur; [5]): 90 | Cocklebur plant response rating (cocklebur; [6]): 40 | Sedge, Umbrella plant response rating ([3]; 125 g ai/ha): 70

C=CCN(C(C)=O)C(=O)c1ccc(F)c(NC(=O)c2cc(C(C)(C)C)nn2CC)c1 [Compound 442]
Morningglory plant response rating (morningglory; [5]): 30 | Morningglory plant response rating (morningglory; [6]): 20 | Ducksalad plant response rating (ducksalad; 125 g ai/ha): 10 | Wheat plant response rating (wheat; [7]): 70 | Wheat plant response rating (wheat; [5]): 40 | Wheat plant response rating (wheat; [6]): 20 | Barnyardgrass plant response rating (barnyardgrass [1]; 125 g ai/ha): 0 | Barnyardgrass plant response rating (barnyardgrass [2]; [8]): 10 | Barnyardgrass plant response rating (barnyardgrass [2]; [5]): 20 | Foxtail, Giant plant response rating (giant foxtail; [5]): 20 | Foxtail, Giant plant response rating (giant foxtail; [6]): 20 | Oat, Wild plant response rating (wild oat; [5]): 60 | Oat, Wild plant response rating (wild oat; [6]): 50 | Crabgrass, Large plant response rating (large crabgrass; [5]): 20 | Crabgrass, Large plant response rating (large crabgrass; [6]): 10 | Lambsquarters plant response rating (lambsquarters; [5]): 70 | Lambsquarters plant response rating (lambsquarters; [6]): 40 | Surinam Grass plant response rating (Surinam grass; [5]): 20 | Surinam Grass plant response rating (Surinam grass; [6]): 20 | Velvetleaf plant response rating (velvetleaf; [5]): 30 | Velvetleaf plant response rating (velvetleaf; [6]): 30 | Blackgrass plant response rating (blackgrass; [5]): 30 | Blackgrass plant response rating (blackgrass; [6]): 30 | Corn plant response rating (corn; [5]): 30 | Corn plant response rating (corn; [6]): 30 | Rice plant response rating (rice; 125 g ai/ha): 30 | Pigweed plant response rating (pigweed; [5]): 70 | Pigweed plant response rating (pigweed; [6]): 50 | Cocklebur plant response rating (cocklebur; [5]): 100 | Cocklebur plant response rating (cocklebur; [6]): 80 | Sedge, Umbrella plant response rating ([3]; 125 g ai/ha): 70

CCOC(=O)c1ccc(F)c(NC(=O)c2cc(CC(C)C)nn2CC)c1 [Compound 72]
Morningglory plant response rating (morningglory; [9]): 0 | Morningglory plant response rating (morningglory; [10]): 0 | Ducksalad plant response rating (ducksalad; [11]): 0 | Wheat plant response rating (wheat; 250 g ai/ha, scale 0 to 100, 0 no effect, 100 complete control, preemergence): 0 | Wheat plant response rating (wheat; [9]): 10 | Wheat plant response rating (wheat; [10]): 10 | Barnyardgrass plant response rating (barnyardgrass [1]; [11]): 0 | Barnyardgrass plant response rating (barnyardgrass [2]; [9]): 0 | Barnyardgrass plant response rating (barnyardgrass [2]; [10]): 0 | Foxtail, Giant plant response rating (giant foxtail; [9]): 0 | Foxtail, Giant plant response rating (giant foxtail; [10]): 0 | Oat, Wild plant response rating (wild oat; [9]): 30 | Oat, Wild plant response rating (wild oat; [10]): 20 | Crabgrass, Large plant response rating (large crabgrass; [9]): 0 | Crabgrass, Large plant response rating (large crabgrass; [10]): 0 | Lambsquarters plant response rating (lambsquarters; [9]): 10 | Lambsquarters plant response rating (lambsquarters; [10]): 0 | Surinam Grass plant response rating (Surinam grass; [9]): 0 | Surinam Grass plant response rating (Surinam grass; [10]): 0 | Velvetleaf plant response rating (velvetleaf; [9]): 0 | Velvetleaf plant response rating (velvetleaf; [10]): 0 | Blackgrass plant response rating (blackgrass; [9]): 50 | Blackgrass plant response rating (blackgrass; [10]): 40 | Corn plant response rating (corn; [9]): 0 | Corn plant response rating (corn; [10]): 0 | Rice plant response rating (rice; [11]): 0 | Pigweed plant response rating (pigweed; [9]): 0 | Pigweed plant response rating (pigweed; [10]): 0 | Cocklebur plant response rating (cocklebur; [9]): 0 | Cocklebur plant response rating (cocklebur; [10]): 0 | Sedge, Umbrella plant response rating [3, 11]: 0
